Publication PMC7284870, “Antimicrobial Peptides from Rat-Tailed Maggots of the Drone Fly Eristalis tenax Show Potent Activity against Multidrug-Resistant Gram-Negative Bacteria” (Microorganisms, 2020)
Read-outs that look alike come from different tables or passages of the source. No end group written: not given here.

Legend:
S. aureus ATCC 33592 = assay type: cell-based, Staphylococcus aureus; settings: CAMB, 18 h, 37 °C, n = 4
Description: (§1) The strains that were used in this study (Table 2 and Table S1) were cultivated at 37 °C in cation-adjusted Mueller–Hinton broth (CAMB) in Erlenmeyer flasks, or on the same medium with agar in Petri dishes. Exceptionally, Mycobacterium smegmatis was cultivated at 37 °C in brain heart infusion (BHI) medium that was supplemented with 1% Tween-80 in Erlenmeyer flasks, or on the same medium lacking detergent but with agar in Petri dishes. Strains listed with Robert Koch Institute (RKI) strain numbers are clinical isolates from the RKI strain collection originating from hospitalized patients in Germany. The remaining strains originated from the Sanofi strain collection and they were originally purchased from the American Type Culture Collection or the German Collection of Microorganisms and Cell Cultures. Meropenem/colistin-resistant strains were maintained, as described above, with the appropriate antibiotic added at levels below the minimal inhibitory concentration (MIC).
(§2) The MIC values were determined in 384-well microtiter plates with an assay volume of 20 µL. Immediately before each assay, the cultures of test organisms (bacteria grown for 18 h, Candida albicans and M. smegmatis grown for 48 h) were diluted with the appropriate medium to a density of 1 × 10^6 cells/mL (C. albicans), 1 × 10^5 cells/mL (M. smegmatis) or 5 × 10^5 cells per mL (other species). […] We transferred 2-µL aliquots from this dilution series to new 384-well microtiter plates while using a CyBio-Well 384-channel automated pipettor (Analytic Jena, Jena, Germany) and added 18 µL of the diluted suspension of each test species using a Viafill reagent dispenser (Integra), thus reducing the final peptide concentration 10-fold to the range 1024–0.03125 µg/mL. […] The growth of M. smegmatis was measured using the BacTiter-Glo luminescence test system (Promega, Madison, WI, USA). The growth of the other species was determined by visual inspection of the microtiter plate and turbidimetry based on the optical density at 600 nm (OD600). The MIC was defined as the peptide concentration at which no bacterial growth was observed. We supplemented the test medium with either 150 mM NaCl or 1.25 mM CaCl2 to represent monovalent and divalent cations to simulate physiological conditions.

[1] = system: Micrococus luteus DSM 20030; assay type: cell-based, Micrococcus luteus; settings: CAMB, 18 h, 37 °C, n = 4
Description: as §1
(§3) The MIC values were determined in 384-well microtiter plates with an assay volume of 20 µL. […] The growth of M. smegmatis was measured using the BacTiter-Glo luminescence test system (Promega, Madison, WI, USA). The growth of the other species was determined by visual inspection of the microtiter plate and turbidimetry based on the optical density at 600 nm (OD600). […]

E. coli ATCC 25922 = system: E. coli ATCC 25922
Description: as §1
The MIC values were determined in 384-well microtiter plates with an assay volume of 20 µL. Immediately before each assay, the cultures of test organisms (bacteria grown for 18 h, Candida albicans and M. smegmatis grown for 48 h) were diluted with the appropriate medium to a density of 1 × 10^6 cells/mL (C. albicans), 1 × 10^5 cells/mL (M. smegmatis) or 5 × 10^5 cells per mL (other species). The peptides were dissolved in sterile water at a concentration of 10.24 mg/mL and a 1:2 dilution series was prepared in a 384-well microtiter plate to achieve the concentration range 10,240–0.3125 µg/mL in a volume of 50 µL. We transferred 2-µL aliquots from this dilution series to new 384-well microtiter plates while using a CyBio-Well 384-channel automated pipettor (Analytic Jena, Jena, Germany) and added 18 µL of the diluted suspension of each test species using a Viafill reagent dispenser (Integra), thus reducing the final peptide concentration 10-fold to the range 1024–0.03125 µg/mL. The cells were incubated at 37 °C and 85% relative humidity, shaking at 180 rpm for 48 h (M. smegmatis), 24 h (C. albicans) or 18 h (other species). The growth of M. smegmatis was measured using the BacTiter-Glo luminescence test system (Promega, Madison, WI, USA). The growth of the other species was determined by visual inspection of the microtiter plate and turbidimetry based on the optical density at 600 nm (OD600). […] We supplemented the test medium with either 150 mM NaCl or 1.25 mM CaCl2 to represent monovalent and divalent cations to simulate physiological conditions.

Canida albicans FH2173 = assay type: cell-based, Candida albicans; settings: CAMB, 24 h, 37 °C, n = 4
Description: as §1, §2

[2] = system: Acinetobacter baumannii ATCC 19606; assay type: cell-based; settings: CAMB, 18 h, 37 °C, n = 4
Description: as §1, §2

[3] = system: Enterococcus faecium DSM 17050; assay type: cell-based; settings: CAMB, 18 h, 37 °C, n = 4
Description: as §1, §2

[4] = system: Klebsiella pneumoniae DSM 30104; assay type: cell-based; settings: CAMB, 18 h, 37 °C, n = 4
Description: as §1, §2

[5] = system: Listeria monocytogenes DSM 20600; assay type: cell-based; settings: CAMB, 18 h, 37 °C, n = 4
Description: as §1, §2

[6] = system: Mycobacterium smegmatis ATCC 607; assay type: cell-based; settings: BHI, 48 h, 37 °C, BacTiter-Glo, n = 4
Description: as §1, §2

[7] = system: Proteus mirabilis DSM 4479; assay type: cell-based; settings: CAMB, 18 h, 37 °C, n = 4
Description: as §1, §2

[8] = system: Pseudomonas aeruginosa ATCC 27853; assay type: cell-based; settings: CAMB, 18 h, 37 °C, n = 4
Description: as §1, §2

[9] = system: Staphylococcus aureus ATCC 25923; assay type: cell-based; settings: CAMB, 18 h, 37 °C, n = 4
Description: as §1, §2

[10] = system: Staphylococcus epidermidis ATCC 35984; assay type: cell-based; settings: CAMB, 18 h, 37 °C, n = 4
Description: as §1, §2

reference strains = assay: MIC, several reference strains; assay type: cell-based; settings: reference strains of Table 2
Description: as §1, §3

In the case of “AACSLGSLLNVGCNSCACAAHCLATRGKNGACNSQRRCVCNK (disulfide (positions not given here)) [EtDef1]”, the MIC (S. aureus ATCC 33592) is reported as >128 mg/L, the MIC [1] is reported as >128 mg/L and the MIC (E. coli ATCC 25922; CAMB + A000160918 [4 µg/mL]) is reported as >256 mg/L. For the same sequence, the MIC (E. coli ATCC 25922; CAMB + A000161246 [4 µg/mL]) was >256 mg/L, the MIC (E. coli ATCC 25922; CAMB + A000173031A [4 µg/mL]) was >256 mg/L and the MIC (E. coli ATCC 25922; CAMB + A000173033A [4 µg/mL]) was >256 mg/L. For the same sequence, the MIC (E. coli ATCC 25922; CAMB + A000173039A [0.25 µg/mL]) was >256 mg/L, the MIC (E. coli ATCC 25922; CAMB + A000173380A [4 µg/mL]) was >256 mg/L and the MIC (E. coli ATCC 25922; CAMB + A000498432A [4 µg/mL]) was >256 mg/L. The MIC (E. coli ATCC 25922; CAMB + A000499933A [0.0625 µg/mL]) was >256 mg/L, the MIC (E. coli ATCC 25922; CAMB + A000500059A [0.0625 µg/mL]) was >256 mg/L and the MIC (E. coli ATCC 25922; CAMB + A000500146A [0.0625 µg/mL]) was 128 mg/L. For the same sequence, the MIC (E. coli ATCC 25922; CAMB + A000501181A [4 µg/mL]) was >256 mg/L, the MIC (E. coli ATCC 25922; CAMB + Colistin E1 [0.016 µg/mL]) was 128 mg/L and the MIC (E. coli ATCC 25922; CAMB + Colistin E2 [0.016 µg/mL]) was 4 mg/L. For the same sequence, the MIC (E. coli ATCC 25922; CAMB + PMB [0.016 µg/mL]) was 1 mg/L, the MIC (E. coli ATCC 25922; CAMB + PMBN [4 µg/mL]) was >256 mg/L and the MIC (E. coli ATCC 25922; CAMB, 18 h, 37 °C, n = 4) was >128 mg/L. For the same sequence, the MIC (E. coli ATCC 25922; Table 6, CAMB) was >256 mg/L, the MIC (Canida albicans FH2173) was >128 mg/L and the MIC [2] was >128 mg/L. The MIC [3] was >128 mg/L, the MIC [4] was >128 mg/L and the MIC [5] was >128 mg/L. The MIC [6] was >128 mg/L, the MIC [7] was >128 mg/L and the MIC [8] was >128 mg/L. The MIC [9] was >128 mg/L, the MIC [10] was >128 mg/L and the “activity against the test strains” value (reference strains) was “inactive”.
